From patent US12502386B2, “Nitrogen-containing heterocyclic compound and use thereof” (SHANGHAI SHIJIANG BIOTECHNOLOGY CO., LTD, priority 2022, dated 2025)
Like-named read-outs stand apart in the source and are kept apart here.

How the values were obtained:
[1] = test system: NCI-H82; experiment: CellTiter-Glo cell viability, tumor cell line NCI-H82; assay type: cell-based; conditions: NCI-H82, 72 h; human small cell lung cancer cell; 3 days of culture; read-out: inhibitory effect on NCI-H82 (IC50)
Protocol: (§1) Cell viability was detected using the Promega CellTiter-Glo kit, cell viability was determined by directly measuring intracellular ATP content. In the experiment, the IC50 value of the compounds prepared in the Examples of the present invention on various tumor cell lines was detected.
(§2) Each tumor cell was cultured in relevant medium. After cell passage, the gradient diluted compounds prepared in the Examples of the present invention was added. After 3 days of culture, the relevant IC50 (50% inhibiting concentration) was measured. The name, source and culture conditions of each tumor cell line were as follows:
Cell line NCI-H82 (ATCC, No. HTB-175) was cultured in 10% fetal bovine serum-containing RPMI1640 medium (+P/S).

[2] = test system: D341 Med; experiment: CellTiter-Glo cell viability, brain tumor cell line D341 Med; assay type: cell-based; conditions: Homo sapiens, 72 h, cerebellar medulloblastoma cell, 3 days of culture, read-out: inhibitory effect on D341 Med (IC50)
Protocol: (§3) Cell viability was detected using the Promega CellTiter-Glo kit, cell viability was determined by directly measuring intracellular ATP content. In the experiment, the IC50 value of the compounds prepared in the Examples of the present invention on various brain tumor cell lines was detected.
as §2
Cell line D341 Med (ATCC, No. HTB-187) was cultured in 20% fetal bovine serum-containing EMEM medium (+P/S).

[3] = test system: ov-NNMT NCI-H82 cell; experiment: CellTiter-Glo cell viability, ov-NNMT NCI-H82 cell (NNMT overexpressed); assay type: cell-based, human; conditions: intracellular ATP, read-out: inhibitory effect on OV-NNMT NCI-H82 (IC50)
[4] = test system: G-401; experiment: CellTiter-Glo cell viability, tumor cell line G-401; assay type: cell-based; conditions: G-401, 72 h; human renal carcinoma Wilms cell; 3 days of culture; read-out: inhibitory effect on G-401 (IC50)
Protocol: as §1, §2
Cell line G-401 (ATCC, No. CRL-1441) was cultured in 10% fetal bovine serum-containing McCoy's 5a medium (+P/S).

[5] = test system: SF-126; experiment: CellTiter-Glo cell viability, tumor cell line SF-126; assay type: cell-based; conditions: SF-126, 72 h, read-out: inhibitory effect on SF-126 (IC50); human glioblastoma multiforme cell; 3 days of culture
Protocol: as §1, §2
Cell line SF126 (JCRB, No. IFO50286) was cultured in 10% fetal bovine serum-containing EMEM medium (+P/S).
as §3

[6] = test system: CFPAC-1; experiment: CellTiter-Glo cell viability, tumor cell line CFPAC-1; assay type: cell-based; conditions: CFPAC-1, 72 h; human pancreatic cancer cell; 3 days of culture; read-out: inhibitory effect on CFPAC-1 (IC50)
Protocol: as §1, §2
Cell line CFPAC-1 (ATCC, No. CRL-1918) was cultured in 10% fetal bovine serum-containing IMDM medium (+P/S).

[7] = test system: Kelly; experiment: CellTiter-Glo cell viability, brain tumor cell line Kelly; assay type: cell-based; conditions: Homo sapiens, 72 h, brain neuroblastoma cell, 3 days of culture, read-out: inhibitory effect on Kelly (IC50)
Protocol: as §3, §2
Cell line Kelly (ECACC, No. 92110411) was cultured in 10% fetal bovine serum and 2 mM glutamine-containing RPMI1640 medium.

[8] = test system: 786-O; experiment: CellTiter-Glo cell viability, tumor cell line 786-O; assay type: cell-based; conditions: Homo sapiens, 786-0, 72 h; clear cell renal cell adenocarcinoma cell; 3 days of culture; read-out: inhibitory effect on 786-O (IC50)
Protocol: as §1, §2
Cell line 786-0 (ATCC, No. CRL-1932) was cultured in 10% fetal bovine serum-containing RPMI164B medium (+P/S).

[9] = test system: GB-1; experiment: CellTiter-Glo cell viability, tumor cell line GB-1; assay type: cell-based; conditions: GB-1, 72 h; human brain glioblastoma cell; 3 days of culture; read-out: inhibitory effect on GB-1 (IC50)
Protocol: as §1, §2
Cell line GB-1 (JCRB, No. IFO50489) was cultured in 10% fetal bovine serum-containing DMEM medium (+P/S).
as §3

[10] = test system: sh-DNMT1 NCI-H82 cell; experiment: CellTiter-Glo cell viability, sh-DNMT1 NCI-H82 cell (DNMT1 knocked down); assay type: cell-based, human; conditions: intracellular ATP, read-out: inhibitory effect on sh-DNMT1 NCI-H82 (IC50)
[11] = test system: NB-1; experiment: CellTiter-Glo cell viability, brain tumor cell line NB-1; assay type: cell-based; conditions: Homo sapiens, NB1, 72 h; brain neuroblastoma cell; 3 days of culture; read-out: inhibitory effect on NB-1 (IC50)
Protocol: as §3
as §2, with “follows: […]” for “follows:”

[12] = test system: SW48; experiment: CellTiter-Glo cell viability, tumor cell line SW48; assay type: cell-based; conditions: SW48, 72 h; human colon adenocarcinoma cell; 3 days of culture; read-out: inhibitory effect on SW48 (IC50)
Protocol: as §1, §2
Cell line SW48 (ATCC, No. CCL-231) was cultured in 10% fetal bovine serum-containing Leibovitz's L-15 medium (+P/S).

[13] = test system: MDA-MB-453; experiment: CellTiter-Glo cell viability, tumor cell line MDA-MB-453; assay type: cell-based; conditions: Homo sapiens, MDA-MB-453, 72 h; breast cancer cell; 3 days of culture; read-out: inhibitory effect on MDA-MB-453 (IC50)
Protocol: as §1
as §2, with “follows: […]” for “follows:”

[14] = test system: Con-NCI-H82 cell; experiment: CellTiter-Glo cell viability, Con-NCI-H82 cell (empty-vector control); assay type: cell-based, human; conditions: intracellular ATP, read-out: inhibitory effect on Con-NCI-H82 (IC50)
[15] = Homo sapiens, NCI-H82, NCI-H82 overexpressing NNMT protein
[16] = Homo sapiens, NCI-H82, NCI-H82 with DNMT1 knocked down by shRNA
[17] = Homo sapiens, NCI-H82, NCI-H82 transfected with empty virus vector (control)
[18] = NCI-H82 overexpressing NNMT protein

Structure (SMILES)	IC50 [3, 15]	IC50 [10, 16]	IC50 [14, 17]	also measured
COc1ccc2c(c1OCCCc1ccccc1)C(C(Cl)(Cl)Cl)N1CCc3cc4c(cc3C1=C2)OCO4 (centres unmarked) [AB35525]	2.02 µM	3.15 µM	0.51 µM	IC50 [1]: 0.51 µM; IC50 [2]: 0.96 µM; IC50 [4]: 0.98 µM; IC50 [5]: 19.8 µM; IC50 [6]: 16.2 µM; IC50 [7]: 3.12 µM; IC50 [8]: 14 µM; IC50 [9]: > 30 µM; IC50 [11]: 1.88 µM; IC50 [12]: 2.34 µM; IC50 [13]: 1.68 µM
COc1ccc2c(c1OC)C(C1CCCC1)N1CCc3cc4c(cc3C1=C2)OCO4 (centres unmarked) [AB31900]				IC50 [1]: 1.08 µM; IC50 [2]: 0.98 µM; IC50 [3, 18]: 4.88 µM; IC50 [4]: 1.32 µM; IC50 [5]: 20.1 µM; IC50 [6]: 18.3 µM; IC50 [7]: 1.12 µM; IC50 [8]: 15.7 µM; IC50 [9]: > 30 µM; IC50 [11]: 0.88 µM; IC50 [12]: 1.28 µM; IC50 [13]: 1.46 µM
COc1ccc2c(c1OC(=O)CC13CC4CC(CC(C4)C1)C3)C(C)N1CCc3cc4c(cc3C1=C2)OCO4 (centres unmarked) [AB31896]	4.53 µM	3.98 µM	1.31 µM	
COc1ccc2c(c1OC)C(C(Cl)(Cl)Cl)N1CCc3cc4c(cc3C1=C2CCc1ccccc1)OCO4 (centres unmarked) [AB35444]	4.21 µM	5.28 µM	1.15 µM	
COc1ccc2c(c1OC)C(C1CCCC1)N1CCc3cc4c(cc3C1=C2Cc1ccc(C(C)C)cc1)OCO4 (centres unmarked) [AB35460]	2.02 µM	2.56 µM	0.66 µM	
COc1ccc2c(c1OC)CN1CCc3cc4c(cc3C1=C2)OCCO4 [AB36463]	3.44 µM	3.24 µM	0.92 µM	
COc1ccc2c(c1OC)C(C)N1CCc3cc4c(cc3C1=C2CCCCc1ccccc1)OCO4 (centres unmarked) [AB35468]	3.12 µM	4.32 µM	0.82 µM	
CCCC1c2c(ccc3c2OCO3)C=C2c3cc4c(cc3CCN21)OCO4 (centres unmarked) [AB36416]	3.44 µM	4.51 µM	1.08 µM	
COc1ccc2c(c1OC)C(C)N1CCc3cc4c(cc3C1=C2CCCc1ccccc1)OCCO4 (centres unmarked) [AB35493]	1.53 µM	2.07 µM	0.68 µM	
CCCCCOc1c(OC)ccc2c1C(C(Cl)(Cl)Cl)N1CCc3cc4c(cc3C1=C2)OCO4 (centres unmarked) [AB35505]	2.14 µM	3.36 µM	0.52 µM	
COc1ccc2c(c1OCc1ccccc1-c1ccccc1)C(C(Cl)(Cl)Cl)N1CCc3cc4c(cc3C1=C2)OCO4 (centres unmarked) [AB35531]	3.55 µM	3.98 µM	0.92 µM	
COc1c(OCCCCl)ccc2c1C(C1CCCC1)N1CCc3cc4c(cc3C1=C2)OCO4 (centres unmarked) [AB36474]	4.12 µM	6.08 µM	1.33 µM	
CCCC1=C2c3cc4c(cc3CCN2C(C2CCCC2)c2c1ccc1c2OCO1)OCO4 (centres unmarked) [AB36432]	3.68 µM	4.46 µM	1.26 µM	
CCOc1c(OC)ccc2c1CN1CCc3cc4c(cc3C1=C2)OCO4 [AB35594]	4.12 µM	3.98 µM	1.26 µM	
COc1ccc2c(c1OCCCCCCNC(=O)OC(C)(C)C)C(C1CCCC1)N1CCc3cc4c(cc3C1=C2)OCO4 (centres unmarked) [AB35455]	3.33 µM	3.12 µM	1.11 µM	
COc1ccc2c(c1OC)C(C(Cl)(Cl)Cl)N1CCc3cc4c(cc3C1=C2Cc1ccccn1)OCO4 (centres unmarked) [AB35447]	25.7 µM	24.3 µM	26.2 µM	
CCCCCCC1c2c(ccc3c2OCO3)C=C2c3cc4c(cc3CCN21)OCO4 (centres unmarked) [AB35426]	1.56 µM	2.12 µM	0.46 µM	

Structure (SMILES)	IC50 [3, 15]	IC50 [10, 16]	IC50 [14, 17]	also measured
C1=C2c3cc4c(cc3CCN2C(C2CCCC2)c2cc3c(cc21)OCO3)OCO4 (centres unmarked) [AB35467]	13.3 µM	15.4 µM	5.64 µM	
COc1ccc2c(c1OC)C(C)N1CCc3cc4c(cc3C1=C2)OCCO4 (centres unmarked) [AB31898]	8.64 µM	12.1 µM	3.69 µM	
CCCCC1=C2c3cc4c(cc3CCN2C(C(Cl)(Cl)Cl)c2c1ccc(OC)c2OC)OCO4 (centres unmarked) [AB35502]	7.18 µM	7.02 µM	2.93 µM	
COc1ccc2c(c1N1CCN(C)CC1)C(C1CCCC1)N1CCc3cc4c(cc3C1=C2)OCO4 (centres unmarked) [AB35519]	5.68 µM	4.68 µM	2.19 µM	
COc1ccc2c(c1N1CCC(C)CC1)CN1CCc3cc4c(cc3C1=C2)OCCO4 [AB35545]	1.33 µM	1.56 µM	0.14 µM	
COc1ccc2c(c1Br)CN1CCc3cc4c(cc3C1=C2)OCO4 [AB36460]	3.33 µM	4.58 µM	1.06 µM	
COc1ccc2c(c1N1CCC(Cl)CC1)CN1CCc3cc4c(cc3C1=C2)OCCO4 [AB35550]	4.69 µM	4.58 µM	2.12 µM	
COc1ccc2c(c1OCCCCCl)C(C(Cl)(Cl)Cl)N1CCc3cc4c(cc3C1=C2)OCO4 (centres unmarked) [AB35496]	6.32 µM	8.24 µM	2.92 µM	
COc1ccc2c(c1OC)C(C1CCCC1)N1CCc3cc4c(cc3C1=C2CCc1ccccc1)OCO4 (centres unmarked) [AB35448]	2.98 µM	2.88 µM	1.34 µM	
COc1ccc2c(c1OCCN1CCCCC1)C(C(Cl)(Cl)Cl)N1CCc3cc4c(cc3C1=C2)OCO4 (centres unmarked) [AB35420]	12.5 µM	18.2 µM	4.99 µM	
CCCCCC1=C2c3cc4c(cc3CCN2C(C)c2c1ccc(OC)c2OC)OCO4 (centres unmarked) [AB35422]	5.48 µM	4.94 µM	2.32 µM	
[2H]C([2H])([2H])Oc1c(OC)ccc2c1C([2H])(C1CCCC1)N1CCc3cc4c(cc3C1=C2)OCO4 (centres unmarked) [AB36509]	1.68 µM	2.58 µM	0.51 µM	
COc1ccc2c(c1OCCBr)CN1CCc3cc4c(cc3C1=C2)OCO4 [AB36403]	1.54 µM	1.46 µM	0.38 µM	
CCCCCC1c2c(ccc3c2OCO3)C=C2c3cc4c(cc3CCN21)OCO4 (centres unmarked) [AB36433]	1.95 µM	3.01 µM	0.54 µM	
COc1ccc2c(c1OCCCBr)CN1CCc3cc4c(cc3C1=C2)OCO4 [AB35544]	1.02 µM	2.04 µM	0.28 µM	
COc1ccc2c(c1OC)C(C1CCCC1)N1CCc3cc4c(cc3C1=C2)OCO4 (centres unmarked) [AB36497]				IC50 [3, 18]: 18.3 µM; IC50 ([10]; NCI-H82 with DNMT1 knocked down by shRNA): 17 µM; IC50 ([14]; NCI-H82 transfected with empty virus vector (control)): 19.9 µM
